Patent US12551437B2, “Liposome compositions comprising weak acid drugs and uses thereof” (Pharmosa Biopharm Inc., priority 2017, dated 2026)

How the values were obtained:
[1] = cited from earlier work
[2] = Drug loading and encapsulation efficiency of liposome suspensions (G-25 column separation, HPLC); type: physicochemical
Protocol: Liposome colloidal suspensions were prepared by ethanol injection technique. […] (DSPE-PEG2000) were dissolved in 2.86 ml of ethanol. The lipid solution in ethanol was injected into 17.4 ml of sodium acetate (200 mM or 400 mM) with vigorous stirring at 60° C. Liposomes were formed as soon as the lipid solution was in contact with sodium acetate. This was followed by extruding the liposome suspension through a 200 nm and a 100 nm polycarbonate membrane (six times, respectively). The liposome with about 100 nm was obtained and diafiltrated against a citrate buffer (pH 5.5) to form a higher inside/lower outside pH gradient between the external medium and the internal aqueous medium of the liposomes. The empty liposome suspension was then stored at 4° C. before drug loading process.
PGE1 (alprostadil) was added to the liposome suspension in the preceding paragraph at various drug/lipid molar ratios at room temperature (25° C.) for 20 min. The PGE1 loaded liposome suspension was stored at 4° C.
The liposome suspension was prepared according to the method described in Section 1.1, except that sodium acetate (200 mM or 400 mM) was replaced by sodium bicarbonate (e.g. 200 mM, 400 mM or other concentrations).
The amount of the drug encapsulated into the liposome was quantified using Waters Alliance® HPLC system with a Photodiode Array (PDA) Detector. […] Separation was performed in C18 Column (Phenomenex Prodigy 5U ODS-3 150×4.6 mm), and then post-reaction was carried out by mixed with IN of KOH at 65° C. The peak of the drug e.g. PGE1 was detected at 280 nm. The retention time was about 4.6 minutes.
Encapsulation efficiency (EE), i.e. the percentage of the drug encapsulated (or loaded) in the internal aqueous medium of the liposomes to the total amount of the drug present in the liposome suspension (i.e. drug in the external medium and drug loaded into the internal aqueous medium of the liposomes) was quantified as follows. Briefly, the liposome suspension was subjected to column chromatography. The free or non-associated drug (i.e. the drug in the external medium) and the liposomes containing the encapsulated drugs in the internal aqueous medium were separated from each other by eluting the liposome suspension through a G-25 column. The amount of the free drug was determined using Waters HPLC with PDA detection, and the amount of the encapsulated drug in the internal aqueous medium of the liposome, after destructing the liposomes with methanol (90% methanol and 10% liposome suspension), was also determined using the same method. The encapsulation efficiency was calculated using the following formula,
[formula] where L is the amount of the encapsulated drug in the internal aqueous medium of the liposomes, and F is the amount of the free drug in the external medium.
In addition, the internal drug concentration (mM) was calculated as follows. Internal drug concentration (mM)=[Drug [μg/mL]×EE %/molecular weight]/[trapped volume*]

[3] = Incubation of liposome suspensions at simulated human physiological condition: pH of external medium and leakage; type: physicochemical; conditions: 20 minutes; for pH at incubation temperature: external buffer 280 mOsm/Kg, citrate 10 mM; for liposome leakage: 280 mOsm/Kg
Protocol: Liposome suspensions using various concentrations of sodium bicarbonate for PGE1 loading were prepared according to section 1.1 of Example 1. The liposome suspensions were incubated at 25° C. and 37° C. for 20 minutes in an external buffer with osmolarity between 280-300 mOsm/Kg, to simulate human physiological condition.
Incubating formulations with a bicarbonate concentration of higher than about 1000 mM in human physiological condition (37° C. and 280-300 mOsm/Kg) generated more CO2, and lead to liposome leakage. The leaked liposomes released bicarbonate salt and the drug from the internal aqueous medium into the external medium and increased the pH of external medium to higher than 6.5.

[4] = liposomal formulation (4-2) HSPC:cholesterol:DSPG 3:2:0.075, internal bicarbonate salt 400 mM, drug loading at 40° C.
[5] = liposomal formulation (4-1) HSPC:cholesterol:DSPE-mPEG2000 3:2:0.075, internal bicarbonate salt 200 mM, drug loading at 25° C.
[6] = liposomal formulation (4-1) HSPC:cholesterol:DSPE-mPEG2000 3:2:0.075, internal bicarbonate salt 400 mM, drug loading at 25° C.
[7] = sodium bicarbonate internal salt 50 mM, 10 mM of phospholipid
[8] = sodium bicarbonate internal salt 150 mM, 10 mM of phospholipid
[9] = sodium bicarbonate internal salt 200 mM, 10 mM of phospholipid
[10] = sodium bicarbonate internal salt 250 mM, 10 mM of phospholipid
[11] = sodium bicarbonate internal salt 300 mM, 10 mM of phospholipid
[12] = sodium bicarbonate internal salt 400 mM, 10 mM of phospholipid
[13] = sodium bicarbonate internal salt 500 mM, 5 mM of phospholipid
[14] = sodium bicarbonate internal salt 600 mM, 10 mM of phospholipid
[15] = sodium bicarbonate internal salt 800 mM, 10 mM of phospholipid
[16] = liposomal formulation (4-1) HSPC:cholesterol:DSPE-mPEG2000 3:2:0.075, internal bicarbonate salt 400 mM, drug loading at 40° C.

## CC(C)N(CCCCOCC(=O)O)c1cnc(-c2ccccc2)c(-c2ccccc2)n1 [MIRE-269 (ACT-333679)]
[1]
  pKa: 3.77
[2]; [4]
  E.E.: 98.7%
  Internal [drug]: 65.41 mM
  Internal drug to internal salt molar ratio: 0.164
  Measured [drug]: 174.6 µg/mL

## O=C(c1ccccc1)c1ccc2n1CCC2C(=O)O (stereo not drawn) [Ketorolac]
[2]; [5]
  E.E.: 91.0%
  Internal [drug]: 87.06 mM
  Internal drug to internal salt molar ratio: 0.435
  Measured [drug]: 766.8 µg/mL
[2]; [6]
  E.E.: 91.2%
  Internal [drug]: 135.71 mM
  Internal drug to internal salt molar ratio: 0.339
  Measured [drug]: 1192.7 µg/mL

## C[C@@H]1C[C@H]2[C@@H]3CCC4=CC(=O)C=C[C@]4(C)[C@@]3(F)[C@@H](O)C[C@]2(C)[C@@]1(O)C(=O)COP(=O)(O)O [Dexamethasone sodium phosphate]
[1]
  pKa: 1.89

## O=C(O)CCc1nc(-c2ccccc2)c(-c2ccccc2)o1 [Oxaprozin]
[1]
  pKa: 4.95

## CC#CCC(C)[C@H](O)/C=C/[C@@H]1[C@H]2C/C(=C/CCCC(=O)O)C[C@H]2C[C@H]1O (stereo partly drawn) [Iloprost]
[1]
  pKa: 4.66
[2]; [4]
  E.E.: 97.4%
  Internal [drug]: 170.34 mM
  Internal drug to internal salt molar ratio: 0.426
  Measured [drug]: 395.9 µg/mL

## CCCCC[C@H](O)/C=C/[C@H]1[C@H](O)CC(=O)[C@@H]1C/C=C\CCCC(=O)O [Prostaglandin E2 (PGE2), Prostaglandin E2]
[1]
  pKa: 4.3

## CC1(C)[C@@H](OC(=O)CCC(=O)O)CC[C@]2(C)[C@H]3C(=O)C=C4[C@@H]5C[C@@](C)(C(=O)O)CC[C@]5(C)CC[C@@]4(C)[C@]3(C)CC[C@@H]12 [Carbenoxolone sodium]
[1]
  pKa: 4.7

## O=C(c1ccccc1)c1ccc2n1CCC2C(=O)O (stereo not drawn) [Ketorolac sodium]
[1]
  pKa: 3.8

## CC#CCC(C)[C@H](O)/C=C/[C@@H]1[C@H]2c3cccc(CCCC(=O)O)c3O[C@H]2C[C@H]1O (mixture of isomers) [Beraprost]
[1]
  pKa: 4.2

## CCCCC[C@H](O)/C=C/[C@H]1[C@H](O)CC(=O)[C@@H]1CCCCCCC(=O)O [Prostaglandin E1 (PGE1), Prostaglandin E1]
[1]
  pKa: 4.35
[3]; bicarbonate 600 mM, 25° C.
  pH at incubation temperature: 5.42
[3]; bicarbonate 600 mM, 37° C.
  pH at incubation temperature: 5.43
[3]; bicarbonate 800 mM, 25° C.
  pH at incubation temperature: 5.38
[3]; bicarbonate 800 mM, 37° C.
  pH at incubation temperature: 5.53
[3]; bicarbonate 1000 mM, 25° C.
  pH at incubation temperature: 5.37
[3]; bicarbonate 1000 mM, 37° C.
  liposome leakage: leakage
  pH at incubation temperature: 6.68
[3]; bicarbonate 1300 mM, 25° C.
  pH at incubation temperature: 5.44
[3]; bicarbonate 1300 mM, 37° C.
  liposome leakage: leakage
  pH at incubation temperature: 6.74
[2]; [6]
  E.E.: 92.8%
  Internal [drug]: 161.81 mM
  Internal drug to internal salt molar ratio: 0.405
  Measured [drug]: 1940.8 µg/mL
[2]; [7]
  E.E.: 93.8%
  Internal [PGE1]: 19.08 mM
  Internal drug to internal salt molar ratio: 0.382
  [PGE1]: 226.4 µg/mL
[2]; [8]
  E.E.: 95.7%
  Internal [PGE1]: 60.25 mM
  Internal drug to internal salt molar ratio: 0.402
  [PGE1]: 700.7 µg/mL
[2]; [9]
  E.E.: 95.9%
  Internal [PGE1]: 80.47 mM
  Internal drug to internal salt molar ratio: 0.402
  [PGE1]: 934.0 µg/mL
[2]; [10]
  E.E.: 92.3%
  Internal [PGE1]: 119.94 mM
  Internal drug to internal salt molar ratio: 0.480
  [PGE1]: 1446.4 µg/mL
[2]; [11]
  E.E.: 92.7%
  Internal [PGE1]: 146.32 mM
  Internal drug to internal salt molar ratio: 0.488
  [PGE1]: 1756.9 µg/mL
[2]; [12]
  E.E.: 92.8%
  Internal [PGE1]: 161.81 mM
  Internal drug to internal salt molar ratio: 0.405
  [PGE1]: 1940.8 µg/mL
[2]; [13]
  E.E.: 96.0%
  Internal [PGE1]: 252.52 mM
  Internal drug to internal salt molar ratio: 0.505
  [PGE1]: 1463.9 µg/mL
[2]; [14]
  E.E.: 93.1%
  Internal [PGE1]: 215.66 mM
  Internal drug to internal salt molar ratio: 0.359
  [PGE1]: 2578.3 µg/mL
[2]; [15]
  E.E.: 90.2%
  Internal [PGE1]: 130.87 mM
  Internal drug to internal salt molar ratio: 0.164
  [PGE1]: 1614.9 µg/mL

## CN1C(C(=O)Nc2ccccn2)=C(O)c2ccccc2S1(=O)=O [Piroxicam]
[1]
  pKa: 4.8
[2]; [16]
  E.E.: 84.5%
  Internal [drug]: 76.72 mM
  Internal drug to internal salt molar ratio: 0.192
  Measured [drug]: 944.7 µg/mL

## O=C(O)COC[C@H]1CC[C@H](COC(=O)N(c2ccccc2)c2ccc(Cl)cc2)CC1 [Ralinepag (APD811), Ralinepag]
[1]
  pKa: 3.5

## C[C@H]1C[C@@H]2[C@H]([C@@H](O)C[C@@]3(C)[C@H]2CC[C@]3(O)C(=O)COC(=O)CCC(=O)O)[C@@]2(C)C=CC(=O)C=C12 [Methylprednisolone Hemisuccinate (MPSS), Methylprednisolone Hemisuccinate]
[1]
  pKa: 4.29
[2]; [16]
  E.E.: 85.9%
  Internal [drug]: 65.27 mM
  Internal drug to internal salt molar ratio: 0.163
  Measured [drug]: 1132.2 µg/mL

## CN1C(C(=O)Nc2ccccn2)=C(O)c2sc(Cl)cc2S1(=O)=O [Lornoxicam]
[1]
  pKa: 1.8
[2]; [16]
  E.E.: 93.3%
  Internal [drug]: 88.41 mM
  Internal drug to internal salt molar ratio: 0.221
  Measured [drug]: 1106.3 µg/mL

## O=C(Oc1ccccc1C(=O)O)c1ccccc1O [Salsalate (Disalcid), Salsalate]
[1]
  pKa: 3.4

## C[C@]12CCC(=O)C=C1CC[C@@H]1[C@@H]2[C@@H](O)C[C@@]2(C)[C@H]1CC[C@]2(O)C(=O)COC(=O)CCC(=O)O [Hydrocortisone sodium succinate]
[1]
  pKa: 3.66

## C[C@H]1C[C@@H]2[C@H]([C@@H](O)C[C@@]3(C)[C@H]2CC[C@]3(O)C(=O)COC(=O)CCC(=O)O)[C@@]2(C)C=CC(=O)C=C12 [Methylprednisolone sodium succinate]
[1]
  pKa: 4.6

## CCCCC[C@H](O)/C=C/[C@@H]1[C@H]2C/C(=C/CCCC(=O)O)O[C@H]2C[C@H]1O [Epoprostenol]
[1]
  pKa: 4.43

## O=C(O)COC(=O)Cc1ccccc1Nc1c(Cl)cccc1Cl [Aceclofenac]
[1]
  pKa: 4.7
